According to article PMC6851181 (Scientific Reports, 2019):
Like-named read-outs stand apart in the source and are kept apart here.

Key:
[1] = Stability of IF in the plasma of mouse under various storage conditions (HPLC); assay type: in vitro ADME; conditions: n = 3
Protocol: The short-term stability was determined after the exposure of the spiked samples to room temperature for 24 h. The long-term stability was evaluated after storage of the standard spiked plasma samples at −70 °C for 30 days. The freeze/thaw cycle stability was assessed after two complete freeze/thaw cycles (−70 to 25 °C) on consecutive days. The analytes were considered to be stable in plasma when 85–115% of the initial concentrations were found.
Chromatography conditions for the study were as follows: the mobile phase consisted of acetonitrile, potassium phosphate buffer 0.025 M at pH 4.0, and triethylamine (12:88:0.025, v/v) with a final pH of 6.2. The flow-rate was 1.2 mL/min. The analytical column was operated at ambient temperature. The HPLC system consisted of a Beckman System Gold, 128 Solvent Module with ultra-violet detection at 200 nm. We used a 3.5 μm Xterra RP-8 (4.6 × 150 mm) column. Data were collected by the HPLC system and transferred to a Dell Pentium computer.

[2] = Mouse IF pharmacokinetic study: plasma IF by HPLC, alone or after GFJ or naringin pre-administration; assay type: in vivo, ICR male mice
Protocol: For the study, 7 groups with 12 animals each were intragastrically (ig) administered with 300 mg/kg of IF. Then, we obtained 1 mL of blood by cardiac puncture at 2.5, 5, 7.5, 10, 20, 30, and 60 min post-administration.
Blood samples were immediately centrifuged at 3500 rpm. Aliquots of 250 µL were stored at −70 °C until the quantification of IF plasmatic concentrations was carried out.
Besides in our research, 7 groups with 12 animals each were ig administered with naringin (250 mg/kg) to evaluate its influence on the concentration/time profiles of IF, a chemical that was ig administered 60 min later (300 mg/kg). Seven other groups were ig administered GFJ (20.8 µL/g) and 60 min later ig treated with 300 mg/kg of IF. In both assays, we obtained blood samples at 2.5, 5, 7.5, 10, 20, 30, and 60 min post-administration. With the indicated design we examined the influence of GFJ or naringin on the concentration/time profiles of IF.
For the blood treatment, after thawing, we added 250 μL of the internal standard (CF) to each sample, after which the plasma was deproteinized with methanol 1:1.5 (plasma-methanol), and centrifuged at 3500 rpm for 10 min. Subsequently, we transferred 450 μL of the supernatant to an Eppendorf tube containing 550 μL of phosphate buffer 0.01 N, pH 4.0. The solution was activated with 1 mL of methanol plus 1 mL of phosphate buffer 0.01 N, pH 4.0, and loaded to a Bond Elut-CH cartridge under reduced pressure. The cartridge was washed with 1 mL of acetonitrile plus phosphate buffer 0.01 N, pH 4.0 (10–90%) and it was eluted with 500 μL of acetonitrile plus phosphate buffer 0.025 N, pH 4.0 (40–60%). A volume of 20 μL were injected in the stabilized HPLC system.
The pharmacokinetic parameters of IF and their interaction with naringin or GFJ were calculated by non-compartmental assessment of data using the computer program WinNonlin (V4.0, Pharsight, Mountain View, CA, USA). The maximum plasma concentrations (Cmax) and their time of occurrence (Tmax) were both obtained directly from the measured data. The area under the plasma concentration-time curve, from time zero to the time of the last measurable concentration (AUC0-t) was calculated with the linear trapezoidal method. AUC0-∞ was calculated AUC0-t + Ct/λz, where Ct is the last measurable concentration and λz the constant rate of terminal elimination. The corresponding half-life elimination (t1/2) was then calculated as 0.693/λz. The results corresponding to Cmax were statistically analyzed with the ANOVA and the Student-Newman-Keuls tests. With respect to AUC0-t, Tmax, and t1/2 the analysis was made with the Kruskal-Wallis test.

[3] = IF only, 300 mg/kg ig, mouse plasma, 300 mg/kg
[4] = male, ICR, mouse, plasma, po, 300 mg/kg, GFJ 20.8 µL/g ig 1 h before IF 300 mg/kg ig, mouse plasma
[5] = male, ICR, mouse, plasma, po, 300 mg/kg, IF only, 300 mg/kg ig, mouse plasma
[6] = male, ICR, mouse, plasma, po, 300 mg/kg, naringin 250 mg/kg ig 1 h before IF 300 mg/kg ig, mouse plasma

Structure (SMILES): O=P1(NCCCl)OCCCN1CCCl (stereo not drawn) [IF, ifosfamide]
- Concentration found ([1]; freeze and thaw stability (−70 to 25 °C), two cycles, added 90 μg/mL): 81.34 ± 4.99 µg/mL
- Concentration found ([1]; long-term (30 days, −70 °C), added 90 μg/mL): 108.34 ± 1.64 µg/mL
- Concentration found ([1]; short-term (24 h, 25 °C), added 10 μg/mL): 12.31 ± 0.68 µg/mL
- Concentration found ([1]; short-term (24 h, 25 °C), added 90 μg/mL): 100.11 ± 14.27 µg/mL
- Cmax ([2]; GFJ 20.8 µL/g ig 1 h before IF 300 mg/kg ig, mouse plasma): 71.35 ± 3.57^a♣ μg/mL
- AUC0−∞ [2, 3]: 2110.36 ± 114.98 µg·min/mL
- Cmax [2, 3]: 58080 ± 5010 ng/mL
- Tmax [2, 3]: 10.83 ± 1.28 min
- t1/2 [2, 3]: 23.55 ± 1.86 min
- AUC(0-inf) [2, 4]: 34200 ng·h/mL
- half-life [2, 4]: 16.5 ± 1.43 min
- Cmax ([2]; male, ICR, mouse, plasma, po, 300 mg/kg, GFJ 20.8 µL/g ig 1 h before IF 300 mg/kg ig, mouse plasma, read-out: Cmax): 71300 ng/mL
- Tmax ([2]; male, ICR, mouse, plasma, po, 300 mg/kg, GFJ 20.8 µL/g ig 1 h before IF 300 mg/kg ig, mouse plasma, read-out: Tmax (converted)): 8.7 min
- AUC(0-inf) [2, 5]: 35200 ng·h/mL
- half-life [2, 5]: 23.5 min
- Cmax ([2]; male, ICR, mouse, plasma, po, 300 mg/kg, IF only, 300 mg/kg ig, mouse plasma, read-out: Cmax): 58100 ng/mL
- Tmax ([2]; male, ICR, mouse, plasma, po, 300 mg/kg, IF only, 300 mg/kg ig, mouse plasma, read-out: Tmax (converted)): 10.8 min
- AUC(0-inf) [2, 6]: 37400 ng·h/mL
- half-life [2, 6]: 26.8 ± 3.77 min
- Cmax ([2]; male, ICR, mouse, plasma, po, 300 mg/kg, naringin 250 mg/kg ig 1 h before IF 300 mg/kg ig, mouse plasma, read-out: Cmax): 64100 ± 4370 ng/mL
- Tmax ([2]; male, ICR, mouse, plasma, po, 300 mg/kg, naringin 250 mg/kg ig 1 h before IF 300 mg/kg ig, mouse plasma, read-out: Tmax (converted)): 5 min
- Cmax ([2]; male, ICR, mouse, plasma, po, naringin 250 mg/kg ig 1 h before IF 300 mg/kg ig, mouse plasma, read-out: Cmax): 64100 ng/mL

Structure (SMILES): C[C@@H]1O[C@@H](O[C@H]2[C@H](Oc3cc(O)c4c(c3)O[C@H](c3ccc(O)cc3)CC4=O)O[C@H](CO)[C@@H](O)[C@@H]2O)[C@H](O)[C@H](O)[C@H]1O [naringin, 4′,5,5-trihdroxy-flavanone-7-rhamnoglucoside]
- Change of half-life (t1/2) of IF with respect to IF alone ([2]; naringin 250 mg/kg ig 1 h before IF 300 mg/kg ig, mouse): no change
- Difference of AUC0−∞ of IF with respect to IF alone ([2]; naringin 250 mg/kg or GFJ 20.8 µL/g ig 1 h before IF 300 mg/kg ig, mouse): no statistical difference
